# Measurements published in paper PMC5218480 (PLoS ONE, 2017).
# Tested on: MV-4-11 cells
# Test: Gene expression microarray analysis (Affymetrix PrimeView) and GSEA
# Type: cell-based, human
# Design: RFU PODN (11730768_x_at) / Fold change /veh PODN (11730768_x_at) / RFU LINC00158 (11744669_a_at) / Fold change /veh LINC00158 (11744669_a_at) / RFU DUSP10 (11751237_a_at) / Fold change /veh DUSP10 (11751237_a_at) / RFU ID3 (11757404_x_at) / Fold change /veh ID3 (11757404_x_at) / RFU PLEKHG5 (11737974_s_at) / Fold change /veh PLEKHG5 (11737974_s_at) / RFU LRRC4B (11730491_at) / Fold change /veh LRRC4B (11730491_at) / RFU GIMAP4 (11747438_a_at) / Fold change /veh GIMAP4 (11747438_a_at) / RFU KRT8 (11758183_x_at) / Fold change /veh KRT8 (11758183_x_at) / RFU CNN1 (11734310_a_at) / Fold change /veh CNN1 (11734310_a_at) / RFU VPS37D (11726825_at) / Fold change /veh VPS37D (11726825_at) / RFU C10orf10 (11716522_x_at) / Fold change /veh C10orf10 (11716522_x_at) / RFU KIR2DL2 /// KIR2DL4 /// KIR2DL5A /// KIR2DL5B /// KIR2DS1 /// KIR2DS2 /// KIR2DS3 /// KIR2DS4 /// KIR3DL3 /// KIR3DL3 /// KIR3DS1 (11738374_at) / Fold change /veh KIR2DL2 /// KIR2DL4 /// KIR2DL5A /// KIR2DL5B /// KIR2DS1 /// KIR2DS2 /// KIR2DS3 /// KIR2DS4 /// KIR3DL3 /// KIR3DL3 /// KIR3DS1 (11738374_at) / RFU C1QL1 (11718748_at) / Fold change /veh C1QL1 (11718748_at) / RFU TMPRSS4 (11747572_a_at) / Fold change /veh TMPRSS4 (11747572_a_at) / RFU HAMP (11756126_x_at) / Fold change /veh HAMP (11756126_x_at) / RFU RNFT2 (11725882_a_at) / Fold change /veh RNFT2 (11725882_a_at) / RFU NR4A2 (11747474_a_at) / Fold change /veh NR4A2 (11747474_a_at) / RFU ABCC12 (11746883_a_at) / Fold change /veh ABCC12 (11746883_a_at) / RFU TMEM136 (11760407_x_at) / Fold change /veh TMEM136 (11760407_x_at) / RFU CLDN22 /// WWC2 (11732394_at) / Fold change /veh CLDN22 /// WWC2 (11732394_at) / RFU HLA-DPB1 (11760878_x_at) / Fold change /veh HLA-DPB1 (11760878_x_at) / RFU SPINT1 (11716480_a_at) / Fold change /veh SPINT1 (11716480_a_at) / RFU GAP43 (11754022_s_at) / Fold change /veh GAP43 (11754022_s_at) / RFU A4GNT (11735810_at) / Fold change /veh A4GNT (11735810_at) / RFU PRB3 (11715151_x_at) / Fold change /veh PRB3 (11715151_x_at) / RFU TUBB4B (11761932_at) / Fold change /veh TUBB4B (11761932_at) / RFU CAPN14 (11732068_a_at) / Fold change /veh CAPN14 (11732068_a_at) / RFU TMCC2 (11721928_a_at) / Fold change /veh TMCC2 (11721928_a_at) / RFU IRGQ (11745062_a_at) / Fold change /veh IRGQ (11745062_a_at) / RFU FAM174B (11720279_a_at) / Fold change /veh FAM174B (11720279_a_at) / RFU TMPRSS4 (11748680_a_at) / Fold change /veh TMPRSS4 (11748680_a_at) / RFU FAM212B (11763350_a_at) / Fold change /veh FAM212B (11763350_a_at) / RFU PLEKHG5 (11743358_a_at) / Fold change /veh PLEKHG5 (11743358_a_at) / RFU ZSCAN30 (11745921_a_at) / Fold change /veh ZSCAN30 (11745921_a_at) / RFU CMKLR1 (11741424_a_at) / Fold change /veh CMKLR1 (11741424_a_at) / RFU LOC101060620 /// MAPK8IP1 (11723275_at) / Fold change /veh LOC101060620 /// MAPK8IP1 (11723275_at) / RFU SPTSSB (11747773_x_at) / Fold change /veh SPTSSB (11747773_x_at) / RFU PRSS12 (11739890_at) / Fold change /veh PRSS12 (11739890_at) / RFU BIN1 (11741810_x_at) / Fold change /veh BIN1 (11741810_x_at) / RFU WNT11 (11732464_a_at) / Fold change /veh WNT11 (11732464_a_at) / RFU C10orf10 (11716521_a_at) / Fold change /veh C10orf10 (11716521_a_at) / RFU C5orf56 (11738089_at) / Fold change /veh C5orf56 (11738089_at) / RFU CYB561 (11721691_x_at) / Fold change /veh CYB561 (11721691_x_at) / RFU ANKRD19P (11752326_a_at) / Fold change /veh ANKRD19P (11752326_a_at) / RFU OR2T12 /// OR2T33 /// OR2T8 (11738714_s_at) / Fold change /veh OR2T12 /// OR2T33 /// OR2T8 (11738714_s_at) / RFU VCAN (11748164_a_at) / Fold change /veh VCAN (11748164_a_at) / RFU JSRP1 (11732532_at) / Fold change /veh JSRP1 (11732532_at) / RFU KRTAP10-11 (11738290_x_at) / Fold change /veh KRTAP10-11 (11738290_x_at) / RFU MYO3A (11730013_a_at) / Fold change /veh MYO3A (11730013_a_at) / RFU EBF3 (11725865_a_at) / Fold change /veh EBF3 (11725865_a_at) / RFU CAMK2N1 (11719241_x_at) / Fold change /veh CAMK2N1 (11719241_x_at) / RFU C5orf56 (11738088_a_at) / Fold change /veh C5orf56 (11738088_a_at) / RFU OLFML3 (11715873_a_at) / Fold change /veh OLFML3 (11715873_a_at) / RFU LOC100653217 /// NTM (11731650_a_at) / Fold change /veh LOC100653217 /// NTM (11731650_a_at) / RFU MAPK11 (11762145_a_at) / Fold change /veh MAPK11 (11762145_a_at) / RFU FIZ1 (11724087_x_at) / Fold change /veh FIZ1 (11724087_x_at) / RFU OASL (11726364_x_at) / Fold change /veh OASL (11726364_x_at) / RFU SOX15 (11748057_x_at) / Fold change /veh SOX15 (11748057_x_at) / RFU CD79A (11719716_a_at) / Fold change /veh CD79A (11719716_a_at) / RFU HIST1H1D (11736915_at) / Fold change /veh HIST1H1D (11736915_at) / RFU CASKIN2 (11723855_a_at) / Fold change /veh CASKIN2 (11723855_a_at) / RFU LOC730098 (11760151_x_at) / Fold change /veh LOC730098 (11760151_x_at) / RFU OR4N2 (11742367_at) / Fold change /veh OR4N2 (11742367_at) / RFU PRRT2 (11749266_a_at) / Fold change /veh PRRT2 (11749266_a_at) / RFU SNX32 (11753110_a_at) / Fold change /veh SNX32 (11753110_a_at) / RFU CDHR5 (11726645_a_at) / Fold change /veh CDHR5 (11726645_a_at) / RFU RCAN1 (11760418_a_at) / Fold change /veh RCAN1 (11760418_a_at) / RFU FAM167A (11723789_a_at) / Fold change /veh FAM167A (11723789_a_at) / RFU FAM26E (11764081_at) / Fold change /veh FAM26E (11764081_at) / RFU ISYNA1 (11749810_s_at) / Fold change /veh ISYNA1 (11749810_s_at) / RFU ACY1 (11761880_at) / Fold change /veh ACY1 (11761880_at) / RFU 11764098_at / Fold change /veh 11764098_at / RFU SAMD14 (11745864_x_at) / Fold change /veh SAMD14 (11745864_x_at) / RFU NPB (11741838_a_at) / Fold change /veh NPB (11741838_a_at) / RFU TMPRSS6 (11731388_a_at) / Fold change /veh TMPRSS6 (11731388_a_at) / RFU KRTAP10-2 (11738614_at) / Fold change /veh KRTAP10-2 (11738614_at) / RFU ARHGAP8 /// PRR5-ARHGAP8 (11727945_x_at) / Fold change /veh ARHGAP8 /// PRR5-ARHGAP8 (11727945_x_at) / RFU KRTAP5-7 /// NADSYN1 (11734609_at) / Fold change /veh KRTAP5-7 /// NADSYN1 (11734609_at) / RFU RASL12 (11751679_a_at) / Fold change /veh RASL12 (11751679_a_at) / RFU CDKN2B (11736163_a_at) / Fold change /veh CDKN2B (11736163_a_at) / RFU PRF1 (11729649_at) / Fold change /veh PRF1 (11729649_at) / RFU, ZNF638 /// ZNF638-IT1 / Fold change vs veh, ZNF638 /// ZNF638-IT1 / RFU, PANK3 / Fold change vs veh, PANK3 / RFU, SH3YL1 / Fold change vs veh, SH3YL1 / RFU, ZEB2 / Fold change vs veh, ZEB2 / RFU, NRIP1 / Fold change vs veh, NRIP1 / RFU, PTTG1IP / Fold change vs veh, PTTG1IP / RFU, CAPN2 / Fold change vs veh, CAPN2 / RFU, MED14 / Fold change vs veh, MED14 / RFU, SNORA58 / Fold change vs veh, SNORA58 / RFU, C1orf63 / Fold change vs veh, C1orf63 / RFU, LRRFIP1 / Fold change vs veh, LRRFIP1 / RFU, NDUFAF7 / Fold change vs veh, NDUFAF7 / RFU, SLC12A2 / Fold change vs veh, SLC12A2 / RFU, IBTK / Fold change vs veh, IBTK / RFU, ESF1 / Fold change vs veh, ESF1 / Fold change vs veh, TMEM50B / RFU, TAOK1 / Fold change vs veh, TAOK1 / RFU, ACBD3 / Fold change vs veh, ACBD3 / RFU, TMA16 / Fold change vs veh, TMA16 / RFU, RWDD3 / Fold change vs veh, RWDD3 / RFU, BCAT1 / Fold change vs veh, BCAT1 / RFU, EDEM3 / Fold change vs veh, EDEM3 / RFU, TMEM33 / Fold change vs veh, TMEM33 / RFU, WDR75 / Fold change vs veh, WDR75 / RFU, AHCTF1 / Fold change vs veh, AHCTF1 / RFU, TFRC / Fold change vs veh, TFRC / RFU, ZDHHC17 / Fold change vs veh, ZDHHC17 / RFU, NOM1 / Fold change vs veh, NOM1 / RFU, ARL8B / Fold change vs veh, ARL8B / RFU, ZBTB11 / Fold change vs veh, ZBTB11 / RFU, TAMM41 / Fold change vs veh, TAMM41 / RFU, KIAA1704 /// LOC100996395 / Fold change vs veh, KIAA1704 /// LOC100996395 / RFU, ING1 / Fold change vs veh, ING1 / RFU, TRMT61B / Fold change vs veh, TRMT61B / RFU, FUBP3 / Fold change vs veh, FUBP3 / RFU, TP53 / Fold change vs veh, TP53 / RFU, TNKS2 / Fold change vs veh, TNKS2 / RFU, ZFP14 / Fold change vs veh, ZFP14 / RFU, ACTR2 / Fold change vs veh, ACTR2 / RFU, PPP3R1 / Fold change vs veh, PPP3R1 / RFU, PIK3R1 / Fold change vs veh, PIK3R1 / RFU, HNRNPA1 / Fold change vs veh, HNRNPA1 / RFU, RNF170 / Fold change vs veh, RNF170 / RFU, ZNF28 / Fold change vs veh, ZNF28 / RFU, RNGTT / Fold change vs veh, RNGTT / RFU, OGT / Fold change vs veh, OGT / RFU, BRD1 / Fold change vs veh, BRD1 / RFU, MARS / Fold change vs veh, MARS / RFU, ZNF655 / Fold change vs veh, ZNF655 / RFU, FAHD1 / Fold change vs veh, FAHD1 / RFU, BDP1 / Fold change vs veh, BDP1 / RFU, LRRCC1 / Fold change vs veh, LRRCC1 / RFU, ARID1A / Fold change vs veh, ARID1A / RFU, ZNF146 / Fold change vs veh, ZNF146 / RFU, ZNF330 / Fold change vs veh, ZNF330 / RFU, GPN3 / Fold change vs veh, GPN3 / RFU, C9orf123 / Fold change vs veh, C9orf123 / RFU, N4BP2L2 / Fold change vs veh, N4BP2L2 / RFU, ARFIP1 / Fold change vs veh, ARFIP1 / RFU, FAM179B / Fold change vs veh, FAM179B / RFU, BCL10 / Fold change vs veh, BCL10 / RFU, UHRF1BP1L / Fold change vs veh, UHRF1BP1L / RFU, BET1 / Fold change vs veh, BET1 / RFU, CNOT2 / Fold change vs veh, CNOT2 / RFU, ZNF268 / Fold change vs veh, ZNF268 / Fold change vs veh, ZNF507 / RFU, DGCR2 / Fold change vs veh, DGCR2 / RFU, WDSUB1 / Fold change vs veh, WDSUB1 / Fold change vs veh, HSP90B1 /// MIR3652 / RFU, ADSS / Fold change vs veh, ADSS / RFU, GK / Fold change vs veh, GK / RFU, ZNF148 / Fold change vs veh, ZNF148 / RFU, TAF9 / Fold change vs veh, TAF9 / RFU, SLC1A5 / Fold change vs veh, SLC1A5 / RFU, SLMO2 / Fold change vs veh, SLMO2 / RFU, ABCC4 / Fold change vs veh, ABCC4 / RFU, LOC101060439 /// RAP1B / Fold change vs veh, LOC101060439 /// RAP1B / RFU, RFX7 / Fold change vs veh, RFX7 / RFU, GTPBP10 / Fold change vs veh, GTPBP10 / RFU, CNEP1R1 / Fold change vs veh, CNEP1R1 / RFU, BIVM-ERCC5 /// ERCC5 / Fold change vs veh, BIVM-ERCC5 /// ERCC5 / RFU, ILF3 / Fold change vs veh, ILF3 / RFU 11762660_at / Fold change /veh 11762660_at / RFU VCAN (11757783_s_at) / Fold change /veh VCAN (11757783_s_at) / RFU DDX43 (11728927_at) / Fold change /veh DDX43 (11728927_at) / RFU KRT8 (11758188_x_at) / Fold change /veh KRT8 (11758188_x_at) / RFU NKD1 (11759106_at) / Fold change /veh NKD1 (11759106_at) / RFU SRD5A1 (11742802_a_at) / Fold change /veh SRD5A1 (11742802_a_at) / RFU TPSAB1 /// TPSB2 (11721975_s_at) / Fold change /veh TPSAB1 /// TPSB2 (11721975_s_at) / RFU GSTM3 (11746129_a_at) / Fold change /veh GSTM3 (11746129_a_at) / RFU IL23R (11737362_x_at) / Fold change /veh IL23R (11737362_x_at) / RFU TMEM51 (11727254_a_at) / Fold change /veh TMEM51 (11727254_a_at) / RFU PIWIL2 (11732686_x_at) / Fold change /veh PIWIL2 (11732686_x_at) / RFU ORM1 (11744905_x_at) / Fold change /veh ORM1 (11744905_x_at) / RFU CCDC152 (11743942_at) / Fold change /veh CCDC152 (11743942_at) / RFU ECM1 (11717891_a_at) / Fold change /veh ECM1 (11717891_a_at) / RFU IL23R (11748794_a_at) / Fold change /veh IL23R (11748794_a_at) / RFU TNFAIP8L3 (11732012_x_at) / Fold change /veh TNFAIP8L3 (11732012_x_at) / RFU MBOAT4 (11741988_at) / Fold change /veh MBOAT4 (11741988_at) / RFU 11764193_at / Fold change /veh 11764193_at / RFU TMEM53 (11763286_at) / Fold change /veh TMEM53 (11763286_at) / RFU MAGEB2 (11727129_at) / Fold change /veh MAGEB2 (11727129_at) / RFU TMEM200A (11744735_a_at) / Fold change /veh TMEM200A (11744735_a_at) / RFU CCDC152 (11751479_a_at) / Fold change /veh CCDC152 (11751479_a_at) / RFU FAM211A (11726209_a_at) / Fold change /veh FAM211A (11726209_a_at) / RFU RGS16 (11746705_a_at) / Fold change /veh RGS16 (11746705_a_at) / RFU VCAN (11755009_s_at) / Fold change /veh VCAN (11755009_s_at) / RFU RHOB (11743442_s_at) / Fold change /veh RHOB (11743442_s_at) / RFU RGS16 (11720943_a_at) / Fold change /veh RGS16 (11720943_a_at) / RFU RGS16 (11720944_at) / Fold change /veh RGS16 (11720944_at) / RFU, VPS4B / Fold change vs veh, VPS4B / RFU, CREB1 / Fold change vs veh, CREB1 / RFU, DNAJC13 / Fold change vs veh, DNAJC13 / RFU, GNAQ / Fold change vs veh, GNAQ / RFU, CDK5R1 / Fold change vs veh, CDK5R1 / RFU, ZRANB3 / Fold change vs veh, ZRANB3 / RFU, CUL4A / Fold change vs veh, CUL4A / RFU, CCNY / Fold change vs veh, CCNY / RFU, UFL1 / Fold change vs veh, UFL1 / RFU, COG3 / Fold change vs veh, COG3 / RFU, DIAPH2 / Fold change vs veh, DIAPH2 / RFU, SKA2 / Fold change vs veh, SKA2 / RFU, AFF3 / Fold change vs veh, AFF3 / RFU, LMF1 / Fold change vs veh, LMF1 / RFU, IPO11 / Fold change vs veh, IPO11 / RFU, DFFB / Fold change vs veh, DFFB / RFU, FOXP1 / Fold change vs veh, FOXP1 / RFU, CARD8 / Fold change vs veh, CARD8 / RFU, STRN3 / Fold change vs veh, STRN3 / RFU, ADK / Fold change vs veh, ADK / RFU, RASSF2 / Fold change vs veh, RASSF2 / RFU, WIPF1 / Fold change vs veh, WIPF1 / RFU, LARP1B / Fold change vs veh, LARP1B / RFU, RASA1 / Fold change vs veh, RASA1 / RFU, RB1 / Fold change vs veh, RB1 / RFU, PPFIA1 / Fold change vs veh, PPFIA1 / RFU, MAT2A / Fold change vs veh, MAT2A / RFU, CCT5 / Fold change vs veh, CCT5 / RFU, WDR92 / Fold change vs veh, WDR92 / RFU, CUX1 / Fold change vs veh, CUX1 / RFU, TTC7A / Fold change vs veh, TTC7A / RFU, TMEM135 / Fold change vs veh, TMEM135 / RFU, DEPTOR / Fold change vs veh, DEPTOR / RFU, CPM / Fold change vs veh, CPM / RFU, DNAJB6 / Fold change vs veh, DNAJB6 / RFU, CACNA2D3 / Fold change vs veh, CACNA2D3 / RFU, DTX4 / Fold change vs veh, DTX4 / RFU, TFCP2 / Fold change vs veh, TFCP2 / RFU, GMCL1 /// GMCL1P1 / Fold change vs veh, GMCL1 /// GMCL1P1 / RFU, AEBP2 / Fold change vs veh, AEBP2 / RFU, SNHG1 /// SNORD22 /// SNORD25 /// SNORD26 /// SNORD27 /// SNORD28 /// SNORD29 /// SNORD31 / Fold change vs veh, SNHG1 /// SNORD22 /// SNORD25 /// SNORD26 /// SNORD27 /// SNORD28 /// SNORD29 /// SNORD31 / Fold change (Aza/veh), C12orf56 (ProbeSet 11735607_a_at) / Fold change (ACY-1035/veh), C12orf56 (ProbeSet 11735607_a_at) / Fold change (Aza/veh), FGFR1OP (ProbeSet 11751329_s_at) / Fold change (ACY-1035/veh), FGFR1OP (ProbeSet 11751329_s_at) / Fold change (Aza/veh), VPS36 (ProbeSet 11739960_a_at) / Fold change (ACY-1035/veh), VPS36 (ProbeSet 11739960_a_at) / RFU SYPL1 (11715823_x_at) / Fold change /veh SYPL1 (11715823_x_at) / RFU IGFBP7 (11715501_s_at) / Fold change /veh IGFBP7 (11715501_s_at) / RFU REEP3 (11722064_at) / Fold change /veh REEP3 (11722064_at) / RFU IGLL1 (11728026_x_at) / Fold change /veh IGLL1 (11728026_x_at): dose or concentration left out as unconfirmed
# Conditions: ProbeSet 11716331_a_at; LIST D
structure (smiles),measurement,value
Nc1ncn([C@@H]2O[C@H](CO)[C@@H](O)[C@H]2O)c(=O)n1 [azacitidine],"RFU, DNAJB6",212.79 RFU
